Results: patent US12415806B1, “Solid state forms” (AMGEN INC., priority 2019, dated 2025)

How the values were obtained:
Solubility assessment = type: physicochemical
Source text: (§1) Within the pharmaceutical research and development field, the investigation of a suitable solid-state form represents a crucial step. Investigating a solid-state form comprises several decisions, mainly the investigation of an anhydrous, salt or co-crystal form and the investigation of a polymorph of the respective anhydrous, salt or co-crystal. During a lead optimization program, several properties of research compounds are optimized, typically leading to one or a few candidates that continue into exploratory development programs. Typically, in the assessment and optimization of physical chemical parameters during lead optimization, the main focus is on solubility. […] Beyond the optimization of solubility, further physical chemical parameters, such as (1) melting point, (2) thermal behavior, (3) hygroscopicity, (4) crystal habit, (5) polymorphic behavior or physical stability, (6) impurity profile, and (7) chemical stability of the anhydrous or salt form, must be borne in mind when investigating the salt. The melting point of a drug, either as a free base, acid or salt form, should be higher than a certain threshold to allow processing steps such as drying or tabletting. The assessment of thermal behavior, which is typically done by thermogravimetry (TGA) and differential scanning calorimetry (DSC), also includes solid-solid phase transitions. […]

KRAS^G12C tumors [1] = conditions: preclinical analyses, combination; cited from earlier work
tumors = conditions: first dosing cohorts; cited from earlier work
KRAS^G12C tumors [2] = conditions: alone as well as in combination with immune-checkpoint inhibitors; cited from earlier work
[3] = Hygroscopicity (moisture uptake versus relative humidity); type: physicochemical
Source text: as §1, with “transitions. These may be either enantiotropic or monotropic and can be related to the conversion of one polymorph to another or one pseudo-polymorph to another pseudo-polymorph—e.g. a lower solvate or hydrate—or a true polymorph. Hygroscopicity plays a key role in the evaluation of solid-state forms, as this property is highly relevant for many process steps such as drying, storage, blending, granulation, to name but a few. Hygroscopicity can be investigated by dynamic vapor sorption (DVS). Basically, this technique yields information on the amount of moisture that is taken up by the compound at a certain relative humidity level.” for “transitions.”

[4] = Solid state physical and chemical stability on storage (HPLC, XRPD, DSC, TGA); type: physicochemical; conditions: 14 weeks at 25° C./60% RH, 40° C./75% RH, 40° C./ambient RH, and 60° C./ambient RH
[5] = Excipient compatibility study in 3 prototype blends; type: physicochemical; conditions: 3 prototype blends stored for 4 weeks at 40° C./75% RH
Experimental: (§2) Furthermore, crystalline anhydrous Form I was stable in an excipient compatibility study in 3 prototype blends that were stored for 4 weeks at 40° C./75% RH. Crystalline anhydrous Form I was also stable to ultraviolet and visible light in the solid state.

[6] = Stability to ultraviolet and visible light in the solid state; type: physicochemical
Experimental: as §2

[7] = Polymorph conversion upon heating or slurrying (thermodynamic stability of forms); type: physicochemical
Experimental: Solutions of the compounds of the disclosure were prepared by adding enough solids to a given solvent so that excess solids were present. All forms described below can be obtained from various solvents, including, but not limited, to the specific solvents described in the Examples. The mixture was then agitated in a sealed vial at either ambient or elevated temperature. After a given amount of time, the solids were isolated by vacuum or centrifuge filtration and analyzed.
The crystalline anhydrous Form II and III described herein below convert to crystalline anhydrous Form I upon heating or slurrying.
Crystalline anhydrous Form III melts at 180° C.

## C=CC(=O)N1CCN(c2nc(=O)n(-c3c(C)ccnc3C(C)C)c3nc(-c4c(O)cccc4F)c(F)cc23)[C@@H](C)C1 (atropisomer, axis not shown) [Compound 1, 6-fluoro-7-(2-fluoro-6-hydroxyphenyl)-1-(4-methyl-2-(2-propanyl)-3-pyridinyl)-4-((2S)-2-methyl-4-(2-propenoyl)-1-piperazinyl)pyrido[2,3-d]pyrimidin-2 (1H)-one]
Solubility assessment
  solubility: good solubility features

## C=CC(=O)N1CCN(c2nc(=O)n(-c3c(C)ccnc3C(C)C)c3nc(-c4c(O)cccc4F)c(F)cc23)[C@@H](C)C1 [Compound 1, 6-fluoro-7-(2-fluoro-6-hydroxyphenyl)-1-(4-methyl-2-(2-propanyl)-3-pyridinyl)-4-((2S)-2-methyl-4-(2-propenoyl)-1-piperazinyl)pyrido[2,3-d]pyrimidin-2 (1H)-one]
KRAS^G12C tumors [1]
  effect on anti-tumor efficacy of chemotherapy and targeted agents: improved the anti-tumor efficacy of chemotherapy and targeted agents
tumors
  anti-tumor activity in clinical trials: demonstrated anti-tumor activity
KRAS^G12C tumors [2]
  tumor outcome in immune-competent mice: produced durable cures

## C=CC(=O)N1CCN(c2nc(=O)n(-c3c(C)ccnc3C(C)C)c3nc(-c4c(O)cccc4F)c(F)cc23)[C@@H](C)C1 [Form I, 6-fluoro-7-(2-fluoro-6-hydroxyphenyl)-1-(4-methyl-2-(2-propanyl)-3-pyridinyl)-4-((2S)-2-methyl-4-(2-propenoyl)-1-piperazinyl)pyrido[2,3-d]pyrimidin-2 (1H)-one]
[3]; between 0 and 90% RH at 25° C.
  moisture absorbed: 0.5-1.0 % wt
[4]
  physical and chemical stability in the solid state (no degradation peaks by HPLC, no changes in XRPD, DSC, TGA): physically and chemically stable
[5]
  stability in excipient compatibility study: stable
[6]
  stability to ultraviolet and visible light: stable
[7]; polymorph and salt screen
  thermodynamic stability among polymorphs identified in the screening process: most thermodynamically stable polymorph

## C=CC(=O)N1CCN(c2nc(=O)n(-c3c(C)ccnc3C(C)C)c3nc(-c4c(O)cccc4F)c(F)cc23)[C@@H](C)C1 [Form II, 6-fluoro-7-(2-fluoro-6-hydroxyphenyl)-1-(4-methyl-2-(2-propanyl)-3-pyridinyl)-4-((2S)-2-methyl-4-(2-propenoyl)-1-piperazinyl)pyrido[2,3-d]pyrimidin-2 (1H)-one]
[3]; between 0 and 90% RH at 25° C.
  moisture absorbed: 2-2.5 % wt
[7]; slurrying in water at 90° C. for 1 hour
  form conversion: converts to crystalline anhydrous Form I
[7]; upon heating and recrystallization at 193° C.
  form conversion: converts to crystalline anhydrous Form I

## C=CC(=O)N1CCN(c2nc(=O)n(-c3c(C)ccnc3C(C)C)c3nc(-c4c(O)cccc4F)c(F)cc23)[C@@H](C)C1 [Form III, 6-fluoro-7-(2-fluoro-6-hydroxyphenyl)-1-(4-methyl-2-(2-propanyl)-3-pyridinyl)-4-((2S)-2-methyl-4-(2-propenoyl)-1-piperazinyl)pyrido[2,3-d]pyrimidin-2 (1H)-one]
[3]; between 0-95% RH at 25° C.
  moisture absorbed: 7.0 % wt
[7]; upon melting and recrystallization at 220° C.
  form conversion: converts to crystalline anhydrous Form I
